pIC50: −log10 of the molar value.

Assay [1] addresses T1, HEK293 transfected with human DDR2 (Homo sapiens, UniProt Q16832).
T1 construct: expressed in transfected cells; host or cells: HEK293 (PLT460F_(DDR2)-P7-1)
T1 sequence (Q16832 22-855): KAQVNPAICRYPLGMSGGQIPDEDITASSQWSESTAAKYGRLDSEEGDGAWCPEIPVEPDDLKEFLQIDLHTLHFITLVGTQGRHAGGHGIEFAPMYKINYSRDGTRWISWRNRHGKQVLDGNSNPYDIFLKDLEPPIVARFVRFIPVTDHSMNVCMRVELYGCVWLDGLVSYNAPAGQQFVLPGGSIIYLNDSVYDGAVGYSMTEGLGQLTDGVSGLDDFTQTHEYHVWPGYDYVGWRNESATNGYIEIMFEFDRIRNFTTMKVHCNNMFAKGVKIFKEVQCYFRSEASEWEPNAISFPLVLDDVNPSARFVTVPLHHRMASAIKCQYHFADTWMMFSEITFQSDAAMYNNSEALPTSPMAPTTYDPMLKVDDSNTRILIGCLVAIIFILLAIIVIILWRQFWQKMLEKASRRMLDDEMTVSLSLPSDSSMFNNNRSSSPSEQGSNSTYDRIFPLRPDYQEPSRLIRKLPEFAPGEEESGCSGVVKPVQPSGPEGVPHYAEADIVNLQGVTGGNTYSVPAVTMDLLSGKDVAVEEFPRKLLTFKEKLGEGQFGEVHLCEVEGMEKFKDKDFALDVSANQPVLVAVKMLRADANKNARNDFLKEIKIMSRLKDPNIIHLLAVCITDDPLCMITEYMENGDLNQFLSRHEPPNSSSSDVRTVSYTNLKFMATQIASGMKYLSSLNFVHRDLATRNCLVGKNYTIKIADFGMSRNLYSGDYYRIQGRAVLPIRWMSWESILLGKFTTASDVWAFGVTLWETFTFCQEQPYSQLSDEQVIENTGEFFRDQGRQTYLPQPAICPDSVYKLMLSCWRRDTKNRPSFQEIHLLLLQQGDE
Description: Phospho-DDR2 cellular assay (collagen II induced DDR2 phosphorylation, ELISA). The assay is classed as cell-based. To be noted: cellular phospho-DDR2; read-out: IC50 [p-DDR2]. In a few lines: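 Cells seeded 48 h in 10% FBS, serum-starved 8 h, then given compound (5% DMSO) with 50 μg/ml chicken collagen II for 16 h at 37 °C. Lysates captured on anti-DDR2 antibody plates; phospho-DDR2 detected with HRP anti-phosphotyrosine antibody by chemiluminescence.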

Assay [2] has as its target T2, His-tagged human recombinant DDR-2 kinase domain (His-TEV-DDR2 467-855 aa) (Homo sapiens, UniProt Q16832).
T2 construct: His-TEV-DDR2 467-855 aa
T2 sequence (Q16832 467-855): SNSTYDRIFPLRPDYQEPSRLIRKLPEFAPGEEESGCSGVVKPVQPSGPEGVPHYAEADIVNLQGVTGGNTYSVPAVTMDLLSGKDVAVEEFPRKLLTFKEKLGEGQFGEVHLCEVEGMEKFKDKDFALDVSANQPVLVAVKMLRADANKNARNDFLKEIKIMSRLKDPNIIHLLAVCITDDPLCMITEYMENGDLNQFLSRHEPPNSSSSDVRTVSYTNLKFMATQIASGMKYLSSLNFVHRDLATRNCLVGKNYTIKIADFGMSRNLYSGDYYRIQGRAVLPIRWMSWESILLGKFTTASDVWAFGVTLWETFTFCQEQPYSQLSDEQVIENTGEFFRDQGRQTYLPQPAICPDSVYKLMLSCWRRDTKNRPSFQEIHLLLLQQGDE
Description: Autophosphorylation assay for biochemical activity testing of DDR2 (HTRF). The conditions noted are these: biochemical DDR2 autophosphorylation. In outline:
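Phospho-tyrosine was detected by HTRF between XL665 anti-6His and cryptate anti-phosphotyrosine PT66 antibodies, using the emission ratio. Inhibition was referenced to the inhibitor-free reaction.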

Regarding `CNC(=O)c1cc(Oc2ccc(CNC(=O)Nc3cc(C)c(Cl)cc3OCCCN(C)C)cc2C)ccn1` [compound 163, 4-(4-{3-[4-Chloro-2-(3-dimethylamino-propoxy)-5-methyl-phenyl]-ureidomethyl}-2-methyl-phenoxy)-pyridine-2-carboxylic acid methylamide], the pIC50 in assay [1] is 7.80; in assay [2], 7.40.
`CNCCOc1ccccc1NC(=O)NCc1ccc(Oc2ccnc(C(=O)NC)c2)cc1` [compound 169, 4-(4-{3-[2-(2-Methylamino-ethoxy)-phenyl]-ureidomethyl}-phenoxy)-pyridine-2-carboxylic acid methylamide]: the pIC50 in assay [1] was 5.72; in assay [2], 5.55.
On to `CNCCOc1ccc(C)cc1NC(=O)NCc1ccc(Oc2ccnc(C(=O)NC)c2)cc1` [compound 170, 4-(4-{3-[5-Methyl-2-(2-methylamino-ethoxy)-phenyl]-ureidomethyl}-phenoxy)-pyridine-2-carboxylic acid methylamide], for which the results for the pIC50 in assay [1] and in assay [2] were 6.71 and 6.51, respectively.
Turning to `CNC(=O)c1cc(Oc2ccc(CNC(=O)Nc3cc(C(F)(F)F)ccc3OCCNC(C)C)cc2)ccn1` [compound 172, 4-(4-{3-[2-(2-Isopropylamino-ethoxy)-5-trifluoromethyl-phenyl]-ureidomethyl}-phenoxy)-pyridine-2-carboxylic acid methylamide], the pIC50 in assay [1] was 7.51; in assay [2] it was 6.85.
Consider `CNC(=O)c1cc(Oc2ccc(CNC(=O)Nc3cc(Cl)c(C)cc3OCCN(C)C)cc2)ccn1` [compound 174, 4-(4-{3-[5-Chloro-2-(2-dimethylamino-ethoxy)-4-methyl-phenyl]-ureidomethyl}-phenoxy)-pyridine-2-carboxylic acid methylamide], for which the values for the pIC50 in assay [1] and in assay [2] were 7.55 and 6.85, respectively.
With `CNCCOc1cc(C)c(Cl)cc1NC(=O)NCc1ccc(Oc2ccnc(C(=O)NC)c2)cc1` [compound 177, 4-(4-{3-[5-Chloro-4-methyl-2-(2-methylamino-ethoxy)-phenyl]-ureidomethyl}-phenoxy)-pyridine-2-carboxylic acid methylamide], the pIC50 in assay [1] was 7.57; in assay [2], 7.13.
With `CNC(=O)c1cc(Oc2ccc(CNC(=O)Nc3cc(Cl)c(C)cc3OC3CCNCC3)cc2)ccn1` [compound 178, 4-(4-{3-[5-Chloro-4-methyl-2-(piperidin-4-yloxy)-phenyl]-ureidomethyl}-phenoxy)-pyridine-2-carboxylic acid methylamide], the pIC50 in assay [1] is 7.60; in assay [2], 7.46.
For `CNC(=O)c1cc(Oc2ccc(CNC(=O)Nc3cc(Cl)c(C)cc3OCCN3CCNCC3)cc2)ccn1` [compound 179, 4-(4-{3-[5-Chloro-4-methyl-2-(2-piperazin-1-yl-ethoxy)-phenyl]-ureidomethyl}-phenoxy)-pyridine-2-carboxylic acid methylamide], the pIC50 was 7.42 in assay [1] and 6.80 in assay [2].
Consider `CNC(=O)c1cc(Oc2ccc(CNC(=O)Nc3cc(Cl)c(C)cc3OCC3CCCN3)cc2)ccn1` (stereo not drawn) [compound 182, 4-(4-{3-[5-Chloro-4-methyl-2-(pyrrolidin-2-ylmethoxy)-phenyl]-ureidomethyl}-phenoxy)-pyridine-2-carboxylic acid methylamide], for which the values for the pIC50 in assay [1] and in assay [2] were 7.52 and 7.23, respectively.
With `CNC(=O)c1cc(Oc2ccc(CNC(=O)Nc3cc(Cl)c(C)cc3OCCNC(C)C)cc2)ccn1` [compound 183, 4-(4-{3-[5-Chloro-2-(2-isopropylamino-ethoxy)-4-methyl-phenyl]-ureidomethyl}-phenoxy)-pyridine-2-carboxylic acid methylamide], the pIC50 was 7.46 in assay [1] and 7.05 in assay [2].
On to `CNC(=O)c1cc(Oc2ccc(CNC(=O)Nc3cc(Cl)c(C)cc3OCC(C)(C)N)cc2)ccn1` [compound 185, 4-(4-{3-[2-(2-Amino-2-methyl-propoxy)-5-chloro-4-methyl-phenyl]-ureidomethyl}-phenoxy)-pyridine-2-carboxylic acid methylamide], for which the pIC50 was 6.76 in assay [1] and 6.34 in assay [2].
In the same order, the values of `CNCCOc1ccc(S(=O)(=O)C(F)(F)F)cc1NC(=O)NCc1ccc(Oc2ccnc(C(=O)NC)c2)c(C)c1` [compound 189, 4-(2-Methyl-4-{3-[2-(2-methylamino-ethoxy)-5-trifluoromethanesulfonyl-phenyl]-ureidomethyl}-phenoxy)-pyridine-2-carboxylic acid methylamide] are 6.94 and 6.57.
In the case of `CNC(=O)c1cc(Oc2ccc(CNC(=O)Nc3cc(C(F)(F)F)ccc3OCC(N)=O)cc2)ccn1` [compound 190, 4-{4-[3-(2-Carbamoylmethoxy-5-trifluoromethyl-phenyl)-ureidomethyl]-phenoxy}-pyridine-2-carboxylic acid methylamide], the pIC50 in assay [1] was 7.40; in assay [2] it was 6.92.
On to `CNC(=O)c1cc(Oc2ccc(CNC(=O)Nc3cc(C(F)(F)F)c(Cl)cc3OCCCN)cc2)ccn1` [compound 191, 4-(4-{3-[2-(3-Amino-propoxy)-4-chloro-5-trifluoromethyl-phenyl]-ureidomethyl}-phenoxy)-pyridine-2-carboxylic acid methylamide], for which the figures for the pIC50 in assay [1] and in assay [2] were 6.97 and 6.23, respectively.
Take `CNC(=O)c1cc(Oc2ccc(CNC(=O)Nc3ccc(C)cn3)cc2)ccn1` [compound 210, 4-{4-[3-(5-Methyl-pyridin-2-yl)-ureidomethyl]-phenoxy}-pyridine-2-carboxylic acid methylamide]: the values for the pIC50 in assay [1] and in assay [2] were 5.82 and 5.70, respectively.
For the compound `CNC(=O)c1cc(Oc2ccc(CNC(=O)Nc3ccc(C)cn3)cc2C)ccn1` [compound 211, 4-{2-Methyl-4-[3-(5-methyl-pyridin-2-yl)-ureidomethyl]-phenoxy}-pyridine-2-carboxylic acid methylamide], the pIC50 is 6.20 in assay [1] and 6.11 in assay [2].
`CNC(=O)c1cc(Oc2ccc(CNC(=O)Nc3cc(C)ccn3)cc2)ccn1` [compound 212, 4-{4-[3-(4-Methyl-pyridin-2-yl)-ureidomethyl]-phenoxy}-pyridine-2-carboxylic acid methylamide]: the pIC50 in assay [1] is 6.42; in assay [2] it was 6.24.
In the case of `CNC(=O)c1cc(Oc2ccc(CNC(=O)Nc3cc(C)ccn3)cc2C)ccn1` [compound 213, 4-{2-Methyl-4-[3-(4-methyl-pyridin-2-yl)-ureidomethyl]-phenoxy}-pyridine-2-carboxylic acid methylamide], the pIC50 was 6.69 in assay [1] and 6.40 in assay [2].
With `CNCCOc1ccc(C)cc1NC(=O)NCc1ccc(Oc2ccnc(C(=O)NC)c2)c(C)c1` [compound 215, 4-(2-Methyl-4-{3-[5-methyl-2-(2-methylamino-ethoxy)-phenyl]-ureidomethyl}-phenoxy)-pyridine-2-carboxylic acid methylamide], the pIC50 in assay [1] was 7.40; in assay [2], 7.16.
For `CNC(=O)c1cc(Oc2ccc(CNC(=O)Nc3cccnc3Cl)cc2)ccn1` [compound 226, 4-{4-[3-(2-Chloro-pyridin-3-yl)-ureidomethyl]-phenoxy}-pyridine-2-carboxylic acid methylamide], in that order: 4.96 and 4.72.
As for `CNC(=O)c1cc(Oc2ccc(CNC(=O)Nc3ccc(OC)nc3)cc2)ccn1` [compound 227, 4-{4-[3-(6-Methoxy-pyridin-3-yl)-ureidomethyl]-phenoxy}-pyridine-2-carboxylic acid methylamide], the pIC50 in assay [1] was 5.20; in assay [2], 5.26.

Source of the values: patent publication US20150225369A1, “DDR2 INHIBITORS FOR THE TREATMENT OF OSTEOARTHRITIS” (Merck Patent GmbH, priority 2012, published 2015).
